According to patent publication US20230416224A1, “PROCESSES FOR PREPARING ARIMOCLOMOL CITRATE AND INTERMEDIATES THEREOF” (ZEVRA DENMARK A/S, priority 2020, published 2023):

What was measured:
[1] = Particle size distribution of ORZY-05 by static automated imaging (Morphologi 4); type: physicochemical; conditions: ORZY-05 particles
Method: The materials and methods were essentially as in Example 7. In the present example, the cooling time of the cooling step of from 30° C. to 0° C. subsequent to addition of acetone was varied and its influence on the particle size of ORZY-05 was determined. The cooling time is a measure of how long it takes to reach 0° C. from 30° C. The particle size distribution (PSD) data shown in Table 3 were acquired using static automated imaging (Morphology 4).
Morphologi 4: The Particle size distribution of Arimoclomol citrate (ORZY-05) was also measured using a Malvern Morphologi 4 equipment.
Wet measurement was used for the needle shaped particles. […] Measurements were made using a thin path wet cell (75*75 mm). Samples were prepared by adding 20 mL of dispersant to 10 mg of API, followed by 30 s of stirring and 2 min of sonication in order to break the agglomerates. A microscope magnifier of X10 or X20 was used, and segmentation sharp edge and/or thresholding was used to improve the focus microscope focus.

[2] = Particle size distribution of ORZY-05 by Malvern Mastersizer 3000; type: physicochemical; conditions: ORZY-05 particles, Malvern Mastersizer 3000, volume distribution
Method: Further batches of ORZY-05 were prepared essentially as in Example 7 and the ORZY-05 particles were examined using Malvern Mastersizer 3000 as described in Example 11.
Malvern Mastersizer 3000: Particle size distribution of Arimoclomol citrate (ORZY-05) was determined by light scattering using a Malvern Mastersizer 3000 particle size analyzer (Malvern Instruments Ltd, Grovewood Road, Malvern, Worcestershire WR14 1XZ, United Kingdom) with a Hydro MV wet-dispersion unit attached. 2-Propanol with 1.8 g/L SPAN-85 additive was used as a dispersion medium (“dispersant”) and added to the dispersion unit. Prior to sample addition, the background counts of the system were determined by circulating the dispersant through the measurement cell under measurement conditions (2500 rpm stirrer speed). Samples for analysis were prepared by adding a suitable amount of Arimoclomol citrate to a 10 mL vial and pre-dispersing it with dispersant under light agitation for a few seconds. The pre-dispersed sample was then pipetted into the Hydro MV dispersion unit filled with dispersant to meet a laser obscuration range of 10-15%. A single-use PE pipette was used for this and representative sampling from the 10 mL vial was ensured by continuous agitation. […] Volume distributions were obtained and the D10, D50 and D90 were calculated from these distributions and reported. For each sample, a single sample preparation was analyzed using red light measurement only. Upon measurement completion, the sample cell was emptied and cleaned.

| Structure (SMILES) | Number CE Diameter D10 [1] [μm] | Number CE Diameter D50 [1] [μm] | Number CE Diameter D90 [1] [μm] | Number CE Diameter Mean [1] [μm] | Number Length D10 [1] [μm] | Number Length D50 [1] [μm] | Number Length D90 [1] [μm] | Volume CE Diameter D10 [1] [μm] | Volume CE Diameter D50 [1] [μm] | Volume CE Diameter D90 [1] [μm] | Volume CE diameter D[3,2] [1] [μm] | Volume CE diameter D[4,3] [1] [μm] | D10 [2] [μm] | D50 [2] [μm] | D90 [2] [μm] |
| --- | --- | --- | --- | --- | --- | --- | --- | --- | --- | --- | --- | --- | --- | --- | --- |
| O=C(O)CC(O)(CC(=O)O)C(=O)O.[O-][n+]1cccc(/C(Cl)=N/OC[C@H](O)CN2CCCCC2)c1 [17-004, arimoclomol citrate] | 0.80 | 2.00 | 23.50 | 6.70 | 1.50 | 4.00 | 40.70 | 24.60 | 38.90 | 52.20 | 34.20 | 38.80 |  |  |  |
| O=C(O)CC(O)(CC(=O)O)C(=O)O.[O-][n+]1cccc(/C(Cl)=N/OC[C@H](O)CN2CCCCC2)c1 [compound 1001, arimoclomol citrate] | 2.41 | 5.28 | 17.81 | 8.16 | 2.90 | 7.03 | 26.69 | 13.10 | 25.95 | 47.14 | 21.77 | 29.46 | 7.00 | 21.00 | 63.00 |
| O=C(O)CC(O)(CC(=O)O)C(=O)O.[O-][n+]1cccc(/C(Cl)=N/OC[C@H](O)CN2CCCCC2)c1 [18-004, arimoclomol citrate] | 3.70 | 12.00 | 29.20 | 14.90 | 5.30 | 15.40 | 40.00 | 19.40 | 39.80 | 81.20 | 33.90 | 45.90 |  |  |  |
| O=C(O)CC(O)(CC(=O)O)C(=O)O.[O-][n+]1cccc(/C(Cl)=N/OC[C@H](O)CN2CCCCC2)c1 [17-001, arimoclomol citrate] | 0.60 | 1.60 | 9.40 | 3.70 | 1.70 | 4.70 | 22.00 | 9.40 | 24.70 | 44.40 | 17.70 | 25.70 |  |  |  |
| O=C(O)CC(O)(CC(=O)O)C(=O)O.[O-][n+]1cccc(/C(Cl)=N/OC[C@H](O)CN2CCCCC2)c1 [17-002, arimoclomol citrate] | 0.70 | 2.20 | 7.40 | 3.40 | 1.10 | 3.20 | 13.90 | 6.20 | 14.00 | 35.00 | 11.40 | 17.10 |  |  |  |
| O=C(O)CC(O)(CC(=O)O)C(=O)O.[O-][n+]1cccc(/C(Cl)=N/OC[C@H](O)CN2CCCCC2)c1 [18-003, arimoclomol citrate] | 4.40 | 21.80 | 38.20 | 22.10 | 8.00 | 29.90 | 56.10 | 24.00 | 37.60 | 58.30 | 35.40 | 41.10 |  |  |  |
| O=C(O)CC(O)(CC(=O)O)C(=O)O.[O-][n+]1cccc(/C(Cl)=N/OC[C@H](O)CN2CCCCC2)c1 [18-001, arimoclomol citrate] | 0.80 | 2.50 | 10.70 | 4.60 | 1.80 | 4.10 | 16.80 | 11.20 | 26.40 | 37.60 | 19.50 | 25.40 |  |  |  |
| O=C(O)CC(O)(CC(=O)O)C(=O)O.[O-][n+]1cccc(/C(Cl)=N/OC[C@H](O)CN2CCCCC2)c1 [compound 2003, arimoclomol citrate] |  |  |  |  |  |  |  |  |  |  |  |  | 4.65 | 13.5 | 40.7 |
| O=C(O)CC(O)(CC(=O)O)C(=O)O.[O-][n+]1cccc(/C(Cl)=N/OC[C@H](O)CN2CCCCC2)c1 [17-003, arimoclomol citrate] | 1.00 | 2.00 | 5.80 | 2.90 | 1.40 | 3.20 | 10.50 | 4.60 | 11.10 | 26.70 | 8.80 | 13.70 |  |  |  |
| O=C(O)CC(O)(CC(=O)O)C(=O)O.[O-][n+]1cccc(/C(Cl)=N/OC[C@H](O)CN2CCCCC2)c1 [compound 2001, arimoclomol citrate] |  |  |  |  |  |  |  |  |  |  |  |  | 17.2 | 47.2 | 112 |
| O=C(O)CC(O)(CC(=O)O)C(=O)O.[O-][n+]1cccc(/C(Cl)=N/OC[C@H](O)CN2CCCCC2)c1 [compound 2005, arimoclomol citrate] |  |  |  |  |  |  |  |  |  |  |  |  | 11.2 | 35.6 | 82.6 |
| O=C(O)CC(O)(CC(=O)O)C(=O)O.[O-][n+]1cccc(/C(Cl)=N/OC[C@H](O)CN2CCCCC2)c1 [18-002, arimoclomol citrate] | 0.90 | 2.20 | 10.10 | 4.20 | 1.50 | 3.60 | 16.60 | 10.90 | 22.70 | 36.00 | 17.90 | 23.30 |  |  |  |
| O=C(O)CC(O)(CC(=O)O)C(=O)O.[O-][n+]1cccc(/C(Cl)=N/OC[C@H](O)CN2CCCCC2)c1 [compound 2004, arimoclomol citrate] |  |  |  |  |  |  |  |  |  |  |  |  | 10.2 | 34.8 | 87 |
| O=C(O)CC(O)(CC(=O)O)C(=O)O.[O-][n+]1cccc(/C(Cl)=N/OC[C@H](O)CN2CCCCC2)c1 [compound 2002, arimoclomol citrate] |  |  |  |  |  |  |  |  |  |  |  |  | 4.33 | 12.5 | 37.9 |
| O=C(O)CC(O)(CC(=O)O)C(=O)O.[O-][n+]1cccc(/C(Cl)=N/OC[C@H](O)CN2CCCCC2)c1 [compound 2006, arimoclomol citrate] |  |  |  |  |  |  |  |  |  |  |  |  | 11.6 | 35.6 | 77.7 |
